Peptide text beside a SMILES is read from it.
Experiments:
[1] = Inhibition of TNF-alpha (unknown origin) binding to TNFR1 assessed as dissociation constant of TNF-alpha preincubated for 15 mins by MST assay (Rvb = 13.4 nM)
[2] = Inhibition of TNF-alpha (unknown origin) binding to TNFR2 assessed as dissociation constant of TNF-alpha preincubated for 15 mins by MST assay (Rvb = 30.5 nM)

C[C@H](N)C(=O)N[C@@H](CS)C(=O)N[C@@H](Cc1cnc[nH]1)C(=O)N[C@@H](C)C(=O)N[C@@H](Cc1c[nH]c2ccccc12)C(=O)N[C@@H](C)C(=O)N1CCC[C@H]1C(=O)N[C@H](C(=O)N[C@@H](CCCNC(=N)N)C(=O)O)[C@@H](C)O (H-ACHAWAPTR-OH)
Kd [1]: 996 nM | Kd [2]: 321 nM
